Test results from patent publication US6437006B1, “Pharmaceutical carrier formulation” (American Cyanamid Company, priority 1999, dated 2002).

Question: For `Cc1ccn(-c2ccc(C(=O)N3Cc4cccn4Cc4ccccc43)c(Cl)c2)n1` [Isomer A], which melting point is on record?
Answer: 141 to 143 °C
